# A melting point compilation (Tetko et al.; mined from patent text by program, amines drawn as free bases though some values may be those of a salt)
row,melting point,Structure (SMILES)
1,193 to 194 °C,Nc1cc(C(F)(F)F)ccc1-c1cc(Oc2ccc3cccnc3c2)ncn1
2,189 to 191 °C,O=C(O)C(=O)CC(=O)c1cccn1Cc1ccc(-c2ccccc2)cc1
3,218 to 225 °C,COCCN1CCc2cc(Nc3ncc(Cl)c(Nc4cc(C(N)=O)ccc4OC)n3)c(OC)cc2CC1
4,198 to 200 °C,COc1cccc(C=CC(=O)C2C(=O)CCC2=O)c1O
5,89.9 to 90.1 °C,CCCCCc1ccc(C(=O)NO)cc1
6,179 to 180 °C,O=c1c2ccccc2nc(-c2cc(-c3ccncc3)c(N3CCOCC3)s2)n1-c1ccccc1Cl
7,117 to 119 °C,CCCCC(C(=O)O)C1=C(c2ccccc2)c2ccccc2OC1 (stereo unspecified)
8,119 to 120 °C,CCCCCCCC[C@@H](O)C(=O)Nc1c(SC)ccc2ncccc12
9,185 to 189 °C,CC(c1oc2ccccc2c(=O)c1-c1cccc(F)c1)n1nc(-c2ccccc2CO)c2c(N)ncnc21 (stereo unspecified)
10,156 to 157 °C,CC(C)(C)OC(=O)Cn1c(C(=O)O)cc2ccccc21
11,74 °C,Cc1noc(-c2cccc(CN3CCN(c4ccc(NC(=O)c5cccc(C)c5-c5ccc(C(C)C)cc5)cc4)CC3)c2)n1
12,157 to 158 °C,CCOC(=O)C(C)c1ccc(N[C@@H](CCC(N)=O)C(=O)O)cc1 (stereo partly specified)
13,145 to 146 °C,Cc1ccc(-c2nc(CCOc3ccc(CN(O)C(N)=O)cc3)c(C)o2)cc1
14,50 to 53 °C,COC(=O)COc1ccc(N=C=O)cc1
15,114 to 115 °C,CC(C)(C)OC(=O)NCCNC(=O)c1cccc(Cl)n1
16,264 to 266 °C,CCOC(=O)c1c(Cn2cncn2)nc2cc(OC)c(O)cc2c1-c1ccc(O)c(O)c1

row,melting point,Structure (SMILES)
1,166 to 170 °C,O=C1OCCN1C(=O)c1ccccc1
2,149 to 150 °C,Nc1cc(CCC(=O)N2CCCCC2)ccc1O
3,170 to 171 °C,c1ccc2c(c1)Cc1ccccc1N2
4,195 to 197 °C,Clc1cc2c(cc1Cl)Nc1cscc1CN2
5,143 to 150 °C,CCOC(=O)N[C@@H](C(=O)O)c1ccccc1
6,153 to 155 °C,O=C(O)c1ccc(NCCCCOc2ccccc2)cc1
7,210 to 213 °C,CC1CCC2Oc3ccc(Cl)cc3C(=O)N2O1 (stereo unspecified)
8,216 to 217 °C,COC(=O)c1cn(-c2ccc(OC(C)=O)cc2C)c(C=O)cc1=O
9,190 to 192 °C,Cc1c(NC(=O)c2ccc(-c3ccc(Cl)cc3)c(F)c2)ccc2cc(CN3CCCC3)cnc12
10,158 to 162 °C,CN(C)c1ccc(C=CC(O)Cc2ccccc2)cc1 (stereo unspecified)
11,85 to 87 °C,COC(=O)[C@@H]1[C@H](c2ccccc2)N1S(=O)(=O)c1ccc(C)cc1 (stereo partly specified)
12,157 °C,COC(=O)CCCc1cc2cc(Cl)ccc2n1S(=O)(=O)c1ccc(N)c([N+](=O)[O-])c1
13,182 to 184 °C,O=C(NCc1ccc(Cl)cc1)c1nn(-c2ccccc2)c2sc(CN3CCOCC3)cc2c1=O
14,103 to 105 °C,COCCN1CCN(CC2CCN(c3ccc(Cl)cc3)C2=O)CC1 (stereo unspecified)
15,112 to 113 °C,CCCCCCN(C=CC=C(C#N)C#N)CCCCCC
16,55 to 57 °C,C=CCNC(=O)N1C[C@@H](Oc2cccc(C(F)(F)F)c2)[C@@H]1C (relative stereo)

# The next lines start with the compound.
row,Structure (SMILES),melting point
1,O=C(Nc1ccc2[nH]ncc2c1)N[C@@H](c1ccccc1)[C@@H]1CCCCN1,147 to 149 °C
2,Cc1cc(C)cc(SN2C(=O)CCC2=O)c1,131 to 134 °C
3,O=C(O)CCc1cccc2c1NC(=O)CC2,164 to 165 °C
4,COc1ccc(-c2cc3ccccc3[nH]2)cc1NCc1ccc([N+](=O)[O-])cc1,198 to 199 °C
5,CCc1ccc(S(=O)(=O)NCc2ccccc2-c2ccccc2C(=O)NCCc2ccccc2)cc1,163 °C
6,Nc1nc(N)c2c(ccc3c2cc(Cl)n3Cc2ccccc2)n1,285 to 286 °C
7,N#CCCNC(=O)C1=CC(CF)(CF)Oc2ccc(C(F)(F)C(F)(F)C(F)(F)F)cc21,135 to 136 °C
8,COC(=O)CN(C)c1nc(-c2ccc(-c3ccccc3)cc2)c(C(=O)OC)s1,141 °C
9,OCC(O)Cc1nccn1CCCc1cccc(OCc2coc(/C=C/c3ccc(F)cc3F)n2)c1 (stereo unspecified),92 to 94 °C
10,CCOc1cc(-c2cc(C(F)(F)F)n3ncc(-c4nc(-c5ccc(N)nc5)no4)c3n2)ccc1C(F)(F)F,263 °C
11,CNC(=O)ON=C1N=C(C2CCCCC2)C(C)(C)S1,158 to 160 °C
12,Cc1ccc2c(c1)c1c(n2Cc2ccccc2)CCCC1=O,179 to 180 °C
13,O=C(NCCSCc1cccc(F)c1)c1c(F)cccc1F,39 to 41 °C
14,CC(Sc1nc(N)cc(Cl)n1)c1cc2ccccc2cn1 (stereo unspecified),179 to 180 °C
15,Cc1cc(Cn2c(-c3ccccc3)nc(Cl)c2C=O)ccc1OCc1ccccc1,135 to 136 °C
16,O=C1CCCc2c1[nH]c1ccc(F)cc21,131 °C
17,COc1ccc(-c2nc(S(=O)c3ccccc3)n(C)c2-c2ccc(OC)cc2)cc1 (stereo unspecified),114 to 115 °C
18,COC(=O)CCCc1cc2nc(Cl)ccc2n1S(=O)(=O)c1ccc(C(C)(C)C)cc1,107 °C
19,O=C(O)c1cnn2c1NC(c1ccccc1)CC2C(F)(F)F (stereo unspecified),185 °C
20,CC(C)(C)c1cc(C(=O)c2ccc[nH]2)cc(C(C)(C)C)c1O,146 °C
21,CC(=O)N[C@@H](CSC(C)=O)C(=O)NCCSC(C)=O,153 to 154 °C
22,Cc1ccc(C2CCC(=NO)c3ccccc32)cc1 (stereo unspecified),97 to 101 °C
23,CCCn1nc2c(N)nc3ccccc3c2c1CCNS(C)(=O)=O,187 to 188 °C

row,Structure (SMILES),melting point
1,Cc1c(Cl)ccc(N)c1Cl,56 to 57.5 °C
2,C[C@@H](n1ccn(-c2ccc(-n3nccn3)cc2)c1=O)[C@](O)(Cn1cncn1)c1ccc(F)cc1F,182 to 185 °C
3,NCCCN1c2ccccc2N=C(c2ccccc2F)c2ccccc21,144 to 145 °C
4,CC(C)Oc1cc(N2NC(C)(C)NC2=O)c(Cl)cc1Cl,162 to 163 °C
5,Cc1ccc(S(=O)(=O)OCCOCn2cc(F)c(=O)[nH]c2=O)cc1,141 to 142 °C
6,CCNc1nc(Cl)c(C#N)c(NC(C)C)n1,160 to 165 °C
7,CC(=O)NNc1ccc([N+](=O)[O-])cn1,226 to 227 °C
8,CCOC(=O)c1cn(-c2ccc(F)cc2F)c2nc(N3CCN(C(C)=O)CC3)c(F)cc2c1=O,219 to 220 °C
9,COc1cccc(C2=C(CC(C)=O)C(=O)NCCC2)c1,140 to 142 °C
10,Cc1cc(O)c(C=O)c(C)c1Cl,90 to 92 °C
11,CCCCNC(=O)N1CCC(c2nc(-c3ccc(-c4ccccc4)cc3)c[nH]2)CC1,99 to 100 °C
12,O=C(CCCCOc1ccc(-c2ccccc2)cc1)NO,152 to 154 °C
13,CNc1cc(NS(=O)(=O)c2ccc(N)cc2)nc(NC)n1,303 to 305 °C
14,CN(C)C=Nc1sc(C#N)c(Cl)c1C#N,226 °C
15,CCCCCCCCc1ccc(C(=O)NN)cc1,90 °C
16,CN(C)CCOc1ccc([C@H]2C[C@]3(C)C(=O)CC[C@H]3[C@@H]3CCc4c(ccc(O)c4Cl)[C@H]32)cc1,254 °C
17,Cc1cc(Br)cnc1CCCCNc1ncc(Cc2cccnc2)cc1N,85 to 87 °C
18,COc1cc2ncnc(N3CCCc4cc(C)ccc43)c2cc1OC,147 to 148 °C
19,CC(C)C[C@H](NC(=O)OCC1c2ccccc2-c2ccccc21)C(=O)N[C@H]1CCOC1OCc1ccccc1 (stereo partly specified),116 to 117 °C
20,OC1(c2ccc(C(F)(F)F)cc2)CCNCC1,130 to 132 °C
21,Cc1ccc(S(=O)(=O)N2CC2)cc1,51 to 52 °C
22,O=c1[nH]c2cc(Cl)ccc2c(=O)c2c(C(F)(F)F)n[nH]c12,334 to 336 °C
23,CCCCCCC(Nc1ccccc1)=C1C(=O)ON=C1C,83 to 84 °C

row,Structure (SMILES),melting point
1,Cc1oc(-c2ccccc2)nc1CCOc1ccc(C#N)cc1,119 to 120 °C
2,CC1CC2C3CCC4=CC(=O)C=CC4(C)C3=CCC2(C)C1(O)C#N (stereo unspecified),241 to 248 °C
3,O=C(NCCCn1ccnc1)C(c1ccccc1)c1ccccc1,136 to 138 °C
4,O=C1CCC(CCO)(c2ccc(F)c(F)c2)CN1Cc1ccccc1 (stereo unspecified),153 to 154 °C
5,CC(=O)n1c(=O)n(CCN2CCC(CC(=O)c3ccc(F)cc3)CC2)c2ccccc21,149 °C
6,C=CCc1c(O)c(C)cc2c1C(C)(C)CC1(CC(C)(C)c3c(cc(C)c(O)c3CC=C)O1)O2,95 to 97 °C
7,CN(C)C1CCN(c2nc(N3CCOCC3)c3ncnc(NCc4ccccc4)c3n2)CC1,148 to 150 °C
8,CCOC(=O)c1c(C)cc2nc(CO)n(-c3ccccc3Cl)c(=O)c2c1C,151 to 152 °C
9,Fc1cccc(CSc2nnc(-c3ccn4ncnc4c3)o2)c1,153 to 154 °C
10,Cc1nc(N)ccc1-c1ccncc1,207 to 209 °C
11,Cc1oc(-c2ccccc2)nc1COc1ccc(COc2ncccc2CO)cc1,139 to 140 °C
12,Cc1cc(C)c(C(=O)c2ccc(-c3ccccc3)cc2)c(C)c1,111 to 112 °C
13,Clc1ccc(C=Cc2nc(CNc3ccc(CCCCn4ccnn4)cc3)co2)cc1,120 to 122 °C
14,COCOc1cc(Cl)ccc1-c1cc(-c2cccc(C(=O)O)c2)c(C#N)c(NC(=O)c2ccco2)n1,214 to 216 °C
15,Cc1oc(-c2ccccc2)nc1COc1ccc(CON=C(CCCC(=O)O)c2ccccc2)cc1,129 to 130 °C
16,CS(=O)(=O)Nc1cc2occ(Nc3ccccc3)c(=O)c2cc1Oc1ccccc1,212 to 213 °C
17,CCCCc1c(OCCN2CCOCC2)c2c(OCCN3CCOCC3)cc(OCCN3CCOCC3)cc2oc1=O,131 °C
18,CCn1cc(C(=O)O)c(=O)c2cc(F)c(-n3cccc3)nc21,257 to 259 °C
19,CCOC(=O)c1ncn(-c2ccn(C)n2)c1N,168 to 170 °C
20,COc1ccc(C(=O)Nc2ccc(F)c(F)c2)cc1NCc1cccc(C(=O)O)c1,240 to 243 °C
21,O=C(NCc1ccc(Cl)cc1)c1cn(CCN2CCOCC2)c2ccc(C=CCO)cc2c1=O,146 to 148 °C
22,Cc1oc(-c2ccccc2)nc1CCOc1ccc(CCCBr)cc1,78 to 79 °C
23,Cc1ccc(C(=O)Nc2c(NC(=O)CN3CCC4(CC3)OCCO4)ccc3c2C(=O)c2ccccc2C3=O)cc1,197 to 198 °C
